Some test systems named below: IGROV1 ovarian; M14 melanoma; KM12 colon; U251 CNS; SK-OV-3 ovarian; MALME-3M melanoma; HT29 colon; NCI-H522 lung; NCI-H23 lung; MOLT-4 leukemia.
Common to all, as to assay: NCI anticancer screen, dose series, 48 h

The source of these data is PubChem BioAssay (NCI).

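Results reflect a 48-hour exposure of cells in 96-well plates to compound at five concentrations. At the GI50, growth is halved. TGI denotes the concentration required for complete inhibition of growth.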

With `COc1ccc([N+](=O)[O-])cc1[I+]c1cc([N+](=O)[O-])ccc1OC`, the TGI with IGROV1 ovarian is over 100 µM; in the assay on M14 melanoma, over 100 µM; in the assay with KM12 colon it was 94.7 µM; in the assay on U251 CNS it was 34.2 µM; with SK-OV-3 ovarian, 82.3 µM; in the assay on MALME-3M melanoma, 17.1 µM. Further, the TGI in the assay with HT29 colon, in the assay on NCI-H522 lung and in the assay with NCI-H23 lung was over 100 µM in each case.
In the case of `O=C(Nc1ccc(-n2cc(-c3ccncc3)c(-c3ccc(O)c(Cl)c3)n2)cc1)c1ccc(Cl)c(Cl)c1`, the GI50 with IGROV1 ovarian was over 32.5 µM; in the assay with M14 melanoma it was 0.668 µM; with KM12 colon, 1.63 µM; in the assay on U251 CNS it was 0.693 µM; in the assay with MOLT-4 leukemia it was 1.37 µM; in the assay with MALME-3M melanoma it was 2.47 µM. The GI50 with NCI-H522 lung was 0.801 µM; in the assay with NCI-H23 lung it was 2.18 µM. For the same compound, the TGI in the assay on IGROV1 ovarian was over 32.5 µM; with M14 melanoma it was 1.52 µM; with KM12 colon, over 32.5 µM; with U251 CNS, over 32.5 µM; in the assay with MOLT-4 leukemia it was over 32.5 µM; in the assay with MALME-3M melanoma it was over 32.5 µM. Besides, the TGI with NCI-H522 lung and in the assay with NCI-H23 lung was over 32.5 µM throughout.
For the compound `CCCCC[C@H]1CC=CC(=O)O1`, the TGI in the assay on IGROV1 ovarian turned out to be 27.3 µM; in the assay with M14 melanoma, 26.7 µM; with KM12 colon, 13.9 µM; in the assay on U251 CNS, 20.8 µM; in the assay with SK-OV-3 ovarian, 39.7 µM; in the assay with MOLT-4 leukemia, 18.8 µM. In addition, the TGI is 33.9 µM with MALME-3M melanoma, 19.8 µM in the assay on HT29 colon, 11.8 µM in the assay on NCI-H522 lung and over 100 µM in the assay on NCI-H23 lung.
As to `COc1cccc(/C=N/[N-]C(N)=O)c1[O-].[OH3+].[Zn+2]`, the TGI in the assay on IGROV1 ovarian, with M14 melanoma, in the assay with KM12 colon, in the assay with U251 CNS, with SK-OV-3 ovarian and with MOLT-4 leukemia was over 100 µM each time. The TGI in the assay on MALME-3M melanoma, in the assay on HT29 colon, with NCI-H522 lung and in the assay on NCI-H23 lung was over 100 µM in each case.
On to `NC(=O)OCc1c(O)c2c(c(O)c1COC(N)=O)C(=O)C=CC2=O`, for which the TGI in the assay on IGROV1 ovarian, in the assay with M14 melanoma, in the assay on KM12 colon, with U251 CNS, with SK-OV-3 ovarian and in the assay on MOLT-4 leukemia was over 100 µM in each case. The TGI with MALME-3M melanoma, in the assay with HT29 colon, in the assay with NCI-H522 lung and with NCI-H23 lung was over 100 µM each time.
For `Cc1ccc(CCCC(=O)O)cc1C`, the TGI in the assay with IGROV1 ovarian, in the assay with M14 melanoma, in the assay on KM12 colon, in the assay on U251 CNS, in the assay with MOLT-4 leukemia and with MALME-3M melanoma was over 100 µM throughout. The TGI with HT29 colon, in the assay on NCI-H522 lung and in the assay on NCI-H23 lung was over 100 µM in each case.
For `CSc1nc(NC2OC(CO)C(O)C(O)C2O)c(N)c(=O)n1C` (stereo not drawn), the TGI in the assay with IGROV1 ovarian, in the assay with KM12 colon, in the assay with U251 CNS, in the assay on SK-OV-3 ovarian, in the assay with MOLT-4 leukemia and with MALME-3M melanoma was over 100 µM in each case. For the same compound, the TGI with HT29 colon, with NCI-H522 lung and with NCI-H23 lung was over 100 µM in each case.
Consider `O=C1c2ccccc2-c2ccc(N(Cc3ccc(Br)cc3)Cc3ccc(Br)cc3)cc21`, for which the TGI in the assay with IGROV1 ovarian, with M14 melanoma, in the assay with KM12 colon, in the assay on U251 CNS, in the assay on SK-OV-3 ovarian and with MOLT-4 leukemia was over 100 µM in each case. Besides, the TGI in the assay on MALME-3M melanoma, with HT29 colon, in the assay with NCI-H522 lung and in the assay on NCI-H23 lung was over 100 µM in each case.
Take `CCCCCCCCCCCCCCCc1ccc(C(=O)C[n+]2ccccc2)cc1`: the GI50 with KM12 colon was 0.523 µM; in the assay on SK-OV-3 ovarian, 1.71 µM; with MALME-3M melanoma it was 1.75 µM; with NCI-H23 lung, 0.502 µM. Moreover, the TGI with KM12 colon came to 1.59 µM; with SK-OV-3 ovarian, 3.34 µM; in the assay with MALME-3M melanoma it was 4.95 µM; in the assay on NCI-H23 lung, 1.79 µM.
`CCOC(=O)c1c(C)n(-c2ccc(C)cc2)c2c1cc(O)c1[nH]c3c(c12)CCCC3`: the TGI with IGROV1 ovarian is 33.9 µM; in the assay on M14 melanoma, 42.6 µM; in the assay on KM12 colon, 51.5 µM; in the assay with U251 CNS, 34.8 µM; in the assay with SK-OV-3 ovarian, over 100 µM; in the assay with MOLT-4 leukemia, 22.4 µM. The TGI with MALME-3M melanoma was found to be 37 µM; in the assay on HT29 colon, 32.3 µM; in the assay on NCI-H522 lung, 27.4 µM; with NCI-H23 lung, 67 µM.
On to `O=C(c1no[n+]([O-])c1C(=O)c1csc2ccccc12)c1csc2ccccc12`, for which the TGI in the assay on IGROV1 ovarian stood at 5.69 µM; with M14 melanoma it was 22.4 µM; in the assay with KM12 colon it was 18.7 µM; in the assay with U251 CNS it was 22.7 µM; in the assay on SK-OV-3 ovarian, 33 µM; in the assay on MOLT-4 leukemia, 3.17 µM. For the same compound, the TGI in the assay with MALME-3M melanoma was found to be 13.5 µM; in the assay with HT29 colon, 13.7 µM; in the assay on NCI-H522 lung, 0.843 µM; with NCI-H23 lung it was 32 µM.
Turning to `COc1ccc(C2C(Cl)C(=O)N2NC(=O)c2ccc(NC(C)=O)cc2)cc1OC` (stereo not drawn), the TGI in the assay on IGROV1 ovarian, in the assay on KM12 colon, in the assay on U251 CNS, in the assay on SK-OV-3 ovarian, in the assay on MOLT-4 leukemia and with MALME-3M melanoma was over 100 µM each time. Moreover, the TGI with HT29 colon, in the assay with NCI-H522 lung and in the assay with NCI-H23 lung was over 100 µM throughout.
`CNC1=C(C)C(=O)C2=C(C1=O)C(COC(N)=O)C1(OC)C3NC3CN21` (stereo not drawn): the TGI with IGROV1 ovarian is 91.2 µM; in the assay with M14 melanoma it was 2.01 µM; in the assay on KM12 colon, 2.04 µM; in the assay with U251 CNS, 15 µM; with SK-OV-3 ovarian it was 36.5 µM; in the assay on MOLT-4 leukemia it was over 100 µM. The results for the TGI in the assay with MALME-3M melanoma, in the assay with HT29 colon and in the assay on NCI-H522 lung were 3.61 µM, 4.01 µM and 2.22 µM, respectively.
As for `N=C(N)c1ccc(-c2ccc(-c3ccccc3)o2)cc1`, the GI50 is 2 µM in the assay with IGROV1 ovarian; 1.77 µM in the assay on M14 melanoma; 1.86 µM in the assay with KM12 colon; 2.89 µM in the assay with SK-OV-3 ovarian; 1.55 µM in the assay on MALME-3M melanoma; 2.01 µM in the assay on HT29 colon. In addition, in the assay with NCI-H23 lung, the GI50 is 3.37 µM. Also, the TGI with IGROV1 ovarian was 4.5 µM; in the assay with M14 melanoma, 3.66 µM; in the assay with KM12 colon, 3.58 µM; in the assay on SK-OV-3 ovarian, 10.2 µM; in the assay on MALME-3M melanoma, 3.12 µM; in the assay on HT29 colon it was 4.51 µM. In addition, the TGI in the assay on NCI-H23 lung came to 14.8 µM.
Regarding `NC(N)=NCCCS(=O)(=O)Nc1ccc(Nc2c3ccccc3nc3cc([N+](=O)[O-])ccc23)cc1`, the TGI with IGROV1 ovarian was 79.5 µM; in the assay with M14 melanoma, over 87.2 µM; in the assay on KM12 colon, 51.4 µM; in the assay on U251 CNS, 29.5 µM; in the assay with SK-OV-3 ovarian it was 55.5 µM; with MOLT-4 leukemia it was 43.6 µM. Moreover, the TGI in the assay on MALME-3M melanoma stood at 37.2 µM; in the assay with HT29 colon it was 55 µM; with NCI-H522 lung it was 61 µM; with NCI-H23 lung, 35.6 µM.
As for `CC(C)=CCC/C(C)=C/CC/C(C)=C/C(O)c1ccccc1` (stereo not drawn), the TGI in the assay on IGROV1 ovarian was determined as 37.2 µM; with M14 melanoma it was 32.7 µM; in the assay on KM12 colon it was 51.8 µM; with U251 CNS, 33.5 µM; in the assay on SK-OV-3 ovarian, 36.5 µM; with MALME-3M melanoma, 34.5 µM. The TGI is 32.9 µM with HT29 colon, over 10 µM in the assay on NCI-H522 lung and 55.8 µM in the assay on NCI-H23 lung.
`CC(C)c1cccc(C(C)C)c1NC(=S)Nc1ccccc1`: the TGI in the assay with IGROV1 ovarian, in the assay with M14 melanoma, in the assay with KM12 colon, in the assay on U251 CNS, in the assay on SK-OV-3 ovarian and with MOLT-4 leukemia was over 100 µM in each case. In addition, the TGI with MALME-3M melanoma, with HT29 colon and in the assay with NCI-H23 lung was over 100 µM in each case.
Take `CC(=O)Nc1ccc2c(c1)C(=Nc1ccc(C(=O)O)cc1)c1ccccc1-2`: the TGI in the assay with IGROV1 ovarian, in the assay with M14 melanoma, in the assay on KM12 colon, with U251 CNS, in the assay with SK-OV-3 ovarian and in the assay with MOLT-4 leukemia was over 100 µM each time. The TGI in the assay on MALME-3M melanoma, in the assay on HT29 colon, with NCI-H522 lung and with NCI-H23 lung was over 100 µM in each case.
As to `COC(=O)c1c(OC(C)=O)ccc2c1c1c(n2Cc2ccccc2)C(=O)c2ccccc2C1=O`, the TGI in the assay on IGROV1 ovarian is 50.4 µM; in the assay on M14 melanoma, 47.5 µM; with KM12 colon, 47.4 µM; in the assay on U251 CNS, 42.4 µM; with SK-OV-3 ovarian, 66.9 µM; in the assay with MOLT-4 leukemia, over 100 µM. For the same compound, the TGI in the assay with MALME-3M melanoma was found to be 50.7 µM; in the assay with HT29 colon, 32.3 µM; with NCI-H522 lung, 46.6 µM; with NCI-H23 lung, 42.1 µM.
Consider `CCN(CC)CCSc1nc2c([N+](=O)[O-])cccc2[nH]1`, for which the TGI in the assay on IGROV1 ovarian, in the assay with M14 melanoma, in the assay with KM12 colon, in the assay with SK-OV-3 ovarian, in the assay with MOLT-4 leukemia and with HT29 colon was over 100 µM each time. The TGI in the assay with NCI-H522 lung and in the assay on NCI-H23 lung was over 100 µM throughout.
For the compound `N=C1SCCS1`, the TGI in the assay with IGROV1 ovarian, with M14 melanoma, with KM12 colon, with U251 CNS, in the assay on SK-OV-3 ovarian and in the assay on MOLT-4 leukemia was over 100 µM throughout. For the same compound, the TGI in the assay with MALME-3M melanoma, with HT29 colon, with NCI-H522 lung and in the assay on NCI-H23 lung was over 100 µM in each case.
For the compound `Nc1cccc2cc(S(=O)(=O)Nc3ccc(C(=O)O)cc3)ccc12`, the TGI in the assay with IGROV1 ovarian, with M14 melanoma, with KM12 colon, in the assay on U251 CNS, in the assay on SK-OV-3 ovarian and with MALME-3M melanoma was over 100 µM throughout. The TGI in the assay on HT29 colon, in the assay on NCI-H522 lung and with NCI-H23 lung was over 100 µM each time.
